These results are taken from US11554182B2, “Macrocyclic complexes of alpha-emitting radionuclides and their use in targeted radiotherapy of cancer” (CORNELL UNIVERSITY, priority 2017, dated 2023).

The nature of series [1]: La^3+ titration with macropa (UV, pH 7.4). The following applies: pH 7.4, MOPS buffer, RT. The class given is physicochemical. As for the experimental part: (§1) La^3+ and Lu^3+ Titrations with Macropa. The pH of a 10 mM 3-(N-morpholino)propanesulfonic acid (MOPS) buffer was adjusted to 7.4 using aqueous NMe4OH. The ionic strength was set at 100 mM using NMe4Cl. Stock solutions of LaCl3.6.8H2O (40 mM) and LuCl3.6H2O (21 mM) were prepared in 1 mM HCl. A stock solution of H2macropa.2HCl.4H2O (8.8 mM) was prepared in MOPS buffer. From these stock solutions, titration solutions containing macropa (100 μM) and either LaCl3 or LuCl3 were prepared in MOPS. Each metal ion titration was carried out at RT by adding 5-10 μL aliquots of titrant to a cuvette containing 3000 μL of macropa (100 μM) in MOPS. Each sample was allowed to equilibrate for 5 min following every addition before a spectrum was acquired. Complexation of the metal ion was monitored by the decrease in absorbance at 268 nm, the λmax of macropa. Titrant was added until no further spectral changes were detected.

The conditions of series [2]: Lu^3+ complex of macropa; cited from earlier work.
For series [3] the following is noted: La^3+ complex of macropa; cited from earlier work.
Series [4] can be described thus: Lu^3+ titration with macropa (UV, pH 7.4). The conditions noted are these: pH 7.4, MOPS buffer, RT. In kind it is physicochemical. The protocol:
as §1

Take `O=C(O)c1cccc(CN2CCOCCOCCN(Cc3cccc(C(=O)O)n3)CCOCCOCC2)n1` [macropa, N,N′-bis[(6-carboxy-2-pyridil)methyl]-4,13-diaza-18-crown-6]: the “affinity of La^3+ for macropa by titration” value in series [1] was “high affinity”. In series [2], the “stability constant log KLuL” value was 8.25. The “stability constant log KLaL” value in series [3] is given as 14.99. Also, the “affinity of Lu^3+ for macropa by titration” value in series [4] is listed as “high affinity”.
